Reference: PubChem BioAssay AID2060887 (Molecular Pharmacology Branch, DTP, NCI, 2025)
pIC50: −log10 of the molar value.

Test system: 782815-120-R-J1-PDC complex spheroid viability
Test: Anticancer human tumor 782815-120-R-J1-PDC patient-derived colon adenocarcinoma cell line growth inhibition [RAS]
Details: for pIC50: curve of first compound; for viability, T/C: stronger effect = lower value; active = viability on the fitted dose curve at most 10% of control; inactive = the rest
In short: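 Multi-cell-type spheroids: tumor cells plus HUVEC endothelial cells and mesenchymal stem cells. RAS-pathway inhibitors were combined with targeted agents, each dosed in half-log steps down from clinical Cmax, or from 10 microM when Cmax was unknown.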

[1] = second compound 0.00316 µM, first compound 0.0316 µM
[2] = second compound 0.00316 µM, first compound 0.1 µM
[3] = second compound 0.00316 µM, first compound 0.316 µM
[4] = second compound 0.00316 µM, first compound 1 µM
[5] = second compound 0.01 µM, first compound 0.0316 µM
[6] = second compound 0.01 µM, first compound 0.1 µM
[7] = second compound 0.01 µM, first compound 0.316 µM
[8] = second compound 0.01 µM, first compound 1 µM
[9] = second compound 0.0316 µM, first compound 0.0316 µM
[10] = second compound 0.0316 µM, first compound 0.1 µM
[11] = second compound 0.0316 µM, first compound 0.316 µM
[12] = second compound 0.0316 µM, first compound 1 µM
[13] = second compound 0.1 µM, first compound 0.0316 µM
[14] = second compound 0.1 µM, first compound 0.1 µM
[15] = second compound 0.1 µM, first compound 0.316 µM
[16] = second compound 0.1 µM, first compound 1 µM
[17] = second compound 0.316 µM, first compound 0.0316 µM
[18] = second compound 0.316 µM, first compound 0.1 µM
[19] = second compound 0.316 µM, first compound 0.316 µM
[20] = second compound 0.316 µM, first compound 1 µM
[21] = second compound 1 µM, first compound 0.0316 µM
[22] = second compound 1 µM, first compound 0.1 µM
[23] = second compound 1 µM, first compound 0.316 µM
[24] = second compound 1 µM, first compound 1 µM
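Also: spheroids exposed to compounds for 7 days before reading.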
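For viability, T/C in this document: 100% = DMSO vehicle control viability.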

C=CC(=O)Nc1cc(Nc2nccc(-c3cn(C)c4ccccc34)n2)c(OC)cc1N(C)CCN(C)C + C=CC(=O)N1CCN(c2nc(OCC3CCCN3C)nc3c(F)c(-c4nc(N)cc(C)c4C(F)(F)F)c(Cl)cc23)C(C)C1
< 6.00: pIC50 (second compound 0.00316 µM) | pIC50 (second compound 0.01 µM) | pIC50 (second compound 0.0316 µM) | pIC50 (second compound 0.1 µM) | pIC50 (second compound 0.316 µM) | pIC50 (second compound 1 µM)
inactive: viability, T/C (second compound 0.00316 µM, first compound 0.00316 µM) 92.7% | viability, T/C (second compound 0.00316 µM, first compound 0.01 µM) 98.3% | viability, T/C [1] 101% | viability, T/C [2] 95% | viability, T/C [3] 92.9% | viability, T/C [4] 99.8% | viability, T/C (second compound 0.01 µM, first compound 0.00316 µM) 91.9% | viability, T/C (second compound 0.01 µM, first compound 0.01 µM) 92% | viability, T/C [5] 91.8% | viability, T/C [6] 91.6% | viability, T/C [7] 93.8% | viability, T/C [8] 91% | viability, T/C (second compound 0.0316 µM, first compound 0.00316 µM) 98.3% | viability, T/C (second compound 0.0316 µM, first compound 0.01 µM) 101% | viability, T/C [9] 98.1% | viability, T/C [10] 92.1% | viability, T/C [11] 92.9% | viability, T/C [12] 88.5% | viability, T/C (second compound 0.1 µM, first compound 0.00316 µM) 100% | viability, T/C (second compound 0.1 µM, first compound 0.01 µM) 88.6% | viability, T/C [13] 96% | viability, T/C [14] 92.9% | viability, T/C [15] 109% | viability, T/C [16] 90.7% | viability, T/C (second compound 0.316 µM, first compound 0.00316 µM) 101% | viability, T/C (second compound 0.316 µM, first compound 0.01 µM) 95.1% | viability, T/C [17] 92.3% | viability, T/C [18] 95.6% | viability, T/C [19] 93.9% | viability, T/C [20] 91.6% | viability, T/C (second compound 1 µM, first compound 0.00316 µM) 96.6% | viability, T/C (second compound 1 µM, first compound 0.01 µM) 90.1% | viability, T/C [21] 90.3% | viability, T/C [22] 96% | viability, T/C [23] 93.4% | viability, T/C [24] 91.7%

CC(Nc1ccc2c(c1)OCCn1cc(N3C(=O)OCC3C(F)F)nc1-2)C(N)=O (centres undefined) + C=CC(=O)N1CCN(c2nc(OCC3CCCN3C)nc3c(F)c(-c4nc(N)cc(C)c4C(F)(F)F)c(Cl)cc23)C(C)C1
inactive: viability, T/C [1] 92.9% | viability, T/C [2] 87.6% | viability, T/C [3] 88.4% | viability, T/C [4] 79.1% | viability, T/C (second compound 0.00316 µM, first compound 3.16 µM) 99.6% | viability, T/C (second compound 0.00316 µM, first compound 10 µM) 103% | viability, T/C [5] 93.5% | viability, T/C [6] 98.6% | viability, T/C [7] 95.8% | viability, T/C [8] 83.6% | viability, T/C (second compound 0.01 µM, first compound 3.16 µM) 103% | viability, T/C (second compound 0.01 µM, first compound 10 µM) 98.8% | viability, T/C [9] 93.2% | viability, T/C [10] 93.6% | viability, T/C [11] 82.3% | viability, T/C [12] 80.6% | viability, T/C (second compound 0.0316 µM, first compound 3.16 µM) 87.8% | viability, T/C (second compound 0.0316 µM, first compound 10 µM) 93.3% | viability, T/C [13] 88.3% | viability, T/C [14] 91.1% | viability, T/C [15] 94.1% | viability, T/C [16] 86.1% | viability, T/C (second compound 0.1 µM, first compound 3.16 µM) 102% | viability, T/C (second compound 0.1 µM, first compound 10 µM) 93.2% | viability, T/C [17] 93.6% | viability, T/C [18] 86.4% | viability, T/C [19] 86.4% | viability, T/C [20] 89.2% | viability, T/C (second compound 0.316 µM, first compound 3.16 µM) 85.1% | viability, T/C (second compound 0.316 µM, first compound 10 µM) 101% | viability, T/C [21] 95.2% | viability, T/C [22] 79.5% | viability, T/C [23] 87.2% | viability, T/C [24] 85.2% | viability, T/C (second compound 1 µM, first compound 3.16 µM) 97.8% | viability, T/C (second compound 1 µM, first compound 10 µM) 92.8%
< 5.00: pIC50 (second compound 0.00316 µM) | pIC50 (second compound 0.01 µM) | pIC50 (second compound 0.0316 µM) | pIC50 (second compound 0.1 µM) | pIC50 (second compound 0.316 µM) | pIC50 (second compound 1 µM)
